This passage reports Activity results from ChEMBL document CHEMBL1148060, “Biosynthetic Study and Radioisotope Labeling of Inostamycin” (J Nat Prod, 1994).

SMILES strings stand for the structures.

This series concerns NRK. Briefly: Cellular uptake in rat NRK cells assessed as [14C]inostamycin level after 2 hrs. It counts as ADME, cell-based.

`CCC[C@H](O)[C@@]1(CC)C[C@@H](C)[C@](O)([C@]2(C)C[C@H](C)[C@@H]([C@@H](CC)C(=O)[C@@H](C)[C@@H](O)[C@H](C)[C@H]3O[C@@](O)([C@H](CC)C(=O)O)[C@@H](C)[C@H](O)[C@H]3CC)O2)O1` [INOSTAMYCIN]: the Activity entry is “Dose-dependent effect”.
